Experimental findings from patent publication US20240301409A1, “Chemically Modified Small Activating RNA” (RACTIGEN THERAPEUTICS, priority 2021, published 2024) are described below.

Data set [1] has as its system Ku-7-LG cells. Description: Cell cycle detection by flow cytometry in Ku-7-LG cells. In kind it is cell-based, human. To be noted: 48 hours. As for the experimental part: RAG1-40-31 and RAG1-40-53 were transfected into Ku-7-LG cells at the final concentrations of 0.1, 1, 10 and 50 nM, and the transfection duration was 48 hours. Two replicate wells were used for each treatment. After transfection, the cell cycle was analyzed by flow cytometry, and the collected data were analyzed by MotFit software.
After transfection, the supernatant was discarded to collect cells. To each well 500 μL PBS was added for one wash and then discarded. To each well 100 μL trypsin was further added. 900 μL medium was added to stop digestion before transferring to a 1.5 mL centrifuge tube. All the cells were collected through centrifugation (400 rcf, 5 min) and counted (2×10^5 cells/200 μL PBS). Cold 70% absolute ethanol was added before incubation overnight at 4° C. After washing twice with PBS, 200 μL Krishan buffer was added before incubation at 4° C. for 1 hour. After washing twice with PBS, the supernatant was discarded and 200 μL PBS was added for cell re-suspension, then the cells were transferred to a 96-well plate and analyzed by flow cytometer. The collected data were analyzed with MotFit software.
In order to study the mechanism of cellular proliferation suppression, change in cell cycle was analyzed using flow cytometry in this example. Randomly selected saRNAs RAG1-40-31 and RAG1-40-53 were transfected into Ku-7-LG cells at final concentrations of 0.1, 1, 10 and 50 nM, respectively, for 48 hours. Each treatment was set in duplicate. Cell cycle was detected and analyzed as described in the general protocol above.
(In flow cytometry, cells or beads pass a laser one at a time.)

Data set [2] concerns p21 gene. Description: p21 mRNA expression by RT-qPCR in Ku-7-LG cells. The data set is classed as cell-based, human. To be noted: 10 nM. As for the experimental part: Ku-7-LG and T24 cells were transfected with the indicated saRNA at a final concentration of 10 nM for 3 days. After transfection, the RNA was extracted with the Qiagen RNeasy kit. After reverse transcription, the ABI 7500 fast real-time PCR system was used for qPCR amplification. The GAPDH gene was amplified as an internal reference. […] Dashed line indicates duplex Rag1-40 with no chemical modification in comparison, and the values above the line indicate stronger activity. The control was blank transfection without oligonucleotide. dsCon2 is transfected with a double-stranded scramble RNA. The value of the ordinate represents the mean±SD of 2 repeated treatments.
The control and dsCon2 were blank transfection and scramble dsRNA transfection, respectively. The values in the ordinate represent the mean±SD of 2 repeated treatments.
Human bladder cancer cells Ku-7-LG (ATCC), J82 (ATCC) and T24 (ATCC) were cultured in McCoy medium (Gibco) comprising 10% calf serum (Sigma-Aldrich) and 1% penicillin/Streptomycin (Gibco). Cells were cultured at 37° C. under 5% CO2. Ku-7-LG, J82 and T24 cells were plated into 12-well plates at 10×10^4 cells per well, transfected with the small RNA at a concentration of 10 nM (unless otherwise specified) for three days, using RNAiMax (Invitrogen, Carlsbad, CA) according to the manufacturer's instructions. Two replicate wells were set for each treatment.
After transfection, the medium was discarded and to each well 500 μl cell lysate was added and incubated at room temperature for 5 minutes. RNA was extracted with the Qiagen RNeasy kit, and after reverse transcription, qPCR analysis was performed on the ABI 7500 Fast Real-time PCR system (Applied Biosystems). Each sample was amplified in 3 replicate wells.
The PCR reaction conditions are: 95° C. for 30 seconds, 95° C. for 5 seconds, 60° C. for 30 seconds, and 40 cycles of amplification. The GAPDH gene was amplified as an internal reference at the same time. p21 was amplified with the p21F1/R1 primer pair, and the specific sequences of the amplification primers are shown in Table 1.
In order to calculate the expression value (Erel) of p21 (target gene) of a saRNA transfection sample relative to the control treatment, Formula 1 is used to input the Ct values of the target gene and the internal reference gene for calculation.
wherein, CtTm is the Ct value of the target gene from the control treatment sample; CtTs is the Ct value of the target gene from the saRNA treated sample; CtRm is the Ct value of the internal reference gene from the control treatment sample; and CtRs is the Ct value of the internal reference gene from the saRNA treated sample.
The main purpose of introducing chemical modifications to regulatory oligonucleotides of a gene is to improve their pharmaceutical properties, including enhancing in vivo stability and mitigating off-target effects (e.g., sequence-dependent targeting of unrelated genes, sequence-dependent or independent immune stimulation), while maintaining their gene regulatory capacity (gene knockdown or activation). To assess the effect of chemical modification on the RNAa activity of saRNA on the p21 gene, 10 nM unmodified (Rag1-40) and modified (Rag1-40-1 to Rag1-40-34) duplexes were transfected into Ku-7-LG and T24 cells, respectively. After 72 hours, the mRNA expression level of p21 was assessed by RT-qPCR. All duplexes induced p21 mRNA expression in all […] at least double that of the control.
In order to further evaluate the expression level of p21 mRNA after the different durations of treatment by the chemically modified saRNA duplexes, two saRNAs (RAG1-40-31 and RAG1-40-53) were randomly selected from the above chemically modified saRNA duplexes for detection. RAG1-40-31 and RAG1-40-53 were transfected into Ku-7-LG and T24 cells at a final concentration of 10 nM, for 1, 2, 3, 4, 7 and 9 days, respectively. Each treatment was set up in duplicate. […]
For orientation: Quantitative PCR measures a nucleic acid by following its amplification.

For the substance “RAG1-40-31: saRNA duplex: sense fCfCAACUCAUUCUCCAAG*U*C (SEQ ID NO 16); antisense U*A*fCfUfUGGAGAAfUGAGfUfUGG*fC*A (SEQ ID NO 12) (sense CCAACUCAUUCUCCAAGUC; antisense UACUUGGAGAAUGAGUUGGCA; 2'-F and phosphorothioate modifications; modified_base (1)..(2) (1,2)=2′-fluoro; modified_base (17)..(19) (17,18,19)=phosphorothioate (PS) backbone modification; modified_base (2)..(21) (2,3,19,20,21)=phosphorothioate (PS) backbone modification; modified_base (3)..(20) (3,4,5,12,16,17,20)=2′-fluoro)”, the “percentage of cells in DNA anaphase/mitosis (G2/M)” value in data set [1] (0.1 nM) worked out at 6%; in data set [1] (1 nM), 9%; in data set [1] (10 nM), 8%; in data set [1] (50 nM), 13%. Moreover, the “percentage of cells in DNA replication phase (S phase)” value in data set [1] (0.1 nM) was 32%; in data set [1] (1 nM), 22%; in data set [1] (10 nM), 11%; in data set [1] (50 nM), 6%. The “percentage of cells in prophase of DNA synthesis (G0/G1)” value was 62% in data set [1] (0.1 nM), 69% in data set [1] (1 nM), 81% in data set [1] (10 nM) and 81% in data set [1] (50 nM). The “increase of expression level of p21 mRNA compared with the control group” value in data set [2] (1 day) is on record as 1.3 fold; in data set [2] (2 days) it was 11.4 fold; in data set [2] (3 days), 8.7 fold; in data set [2] (4 days), 6.1 fold; in data set [2] (7 days), 2.6 fold; in data set [2] (9 days) it was 3.8 fold.
